This note sets out measurements from article PMC8465942, “Cyano- and Ketone-Containing Selenoesters as Multi-Target Compounds against Resistant Cancers” (Cancers, 2021).

In general, melting point refers to the temperature of the solid-liquid transition.

Structures are written as SMILES. “And” between values parts separate entries of the source, which are not always exact repeats. Identical values can stand only once. “Also recorded” adds a separate entry of the source. Marks after values point to notes of the source that are not given here. Bounds are passed on as bounds.

In data set [1] the test system is HepG2 (hepatocellular carcinoma). The data set can be described thus: Cytotoxicity on HepG2 cells. Format: cell-based, human. The settings on record: ratio IC50 non-tumour cells / IC50 cancer cells.
Data set [2] has as its target ABCB1 (P-glycoprotein) in Colo 320 colonic adenocarcinoma cells (Homo sapiens, UniProt P08183). The data set can be described thus: ABCB1 inhibition, rhodamine 123 accumulation by flow cytometry. The settings on record: for FAR (fluorescence activity ratio): rhodamine 123, FAR above 2 considered effective. On the procedure:
The inhibition of the ABCB1 multidrug efflux pump ABCB1 by the tested compounds was evaluated using flow cytometry, measuring the retention of rhodamine 123 by ABCB1 (P-glycoprotein) in Colo 320 colonic adenocarcinoma cells. Briefly, the cell number of colonic adenocarcinoma cells were adjusted to 2 × 10^6 cells/mL, re-suspended in serum-free RPMI-1640 medium in the case of colonic adenocarcinoma cells, and distributed in 0.5 mL aliquots into Eppendorf centrifuge tubes. The tested compounds were added at different concentrations (0.2 and 2 µM; from 1 and 10 mM stock solutions, respectively), and the samples were incubated for 10 min at room temperature. Tariquidar was applied as the positive control (0.2 µM final concentration), and DMSO was used as the solvent control (at 2 v/v%). Next, 10 µL (5.2 µM final concentration) of the fluorochrome rhodamine 123 (Sigma, St. Louis, MO, USA) was added to the samples and the cells were incubated for 20 min at 37 °C. After the incubation period, the cells were washed twice and re-suspended in 0.5 mL PBS for analysis. The fluorescence of the gated cell population was measured with a Partec CyFlow® flow cytometer (Partec, Münster, Germany). The percentage of the mean fluorescence intensity was calculated for the treated MDR cells as compared with the untreated cells. The results were obtained from a representative flow cytometry experiment in which at least 20,000 individual cells of the overall population were evaluated for the rhodamine 123 retained inside the cells. The fluorescence activity ratio (FAR) was calculated based on the following equation, which relates the measured fluorescence values: FAR=Colo320treated / Colo320control/Colo205treated / Colo205control
The parameters evaluated from flow cytometry experiments were: Forward Scatter Count (FSC, provides information about cell size); Side Scatter Count (SSC, proportional to cell granularity or internal complexity); FL-1 (Mean fluorescence of the cells), and Fluorescence Activity Ratio (FAR), which was calculated by the equation given above.
(In general: Flow cytometry measures light scatter and fluorescence of single cells or particles in a stream.)

Data set [3] has as its system B16 (skin melanoma). Kind of data set: Cytotoxicity on B16 cells. Format: cell-based, murine. The settings on record: ratio IC50 non-tumour cells / IC50 cancer cells.
Data set [4] addresses T1, recombinant human P-gp membranes (Homo sapiens, UniProt P08183).
T1 construct: purchased Promega
Kind of data set: P-gp ATPase activity assay (Pgp-Glo). To be noted: 25 µM; relative to basal activity. Format: biochemical. How it is done: P-glycoprotein ATPase activity was determined using the Pgp-Glo^TM Assay System (Promega, WI, USA). The assay was performed according to the manufacturer’s instructions. […] DMSO at 2% was applied as a solvent control. […] The reaction was stopped after adding 50 µL of ATP Detection Reagent. Then, the samples and controls were incubated at room temperature for 20 min. The emitted luciferase-generated luminescent signal was measured in a CLARIOstar Plus plate reader (BMG Labtech, UK) at 580 nm. The relative ATPase activity was calculated based on the ratio between the luminescence measured of the P-gp ATPase activity of each compound and the basal P-gp ATPase activity according to the following equation: Relative ATPase activity=Lumtreated−Lumuntreated/LumNa3VO4 − Lumuntreated
The effect of the tested compounds was evaluated according to the instructions of the manufacturer (Table 2).

ABCB1 (P-glycoprotein) in Colo 320 colonic adenocarcinoma cells, sequence (P08183 whole entry): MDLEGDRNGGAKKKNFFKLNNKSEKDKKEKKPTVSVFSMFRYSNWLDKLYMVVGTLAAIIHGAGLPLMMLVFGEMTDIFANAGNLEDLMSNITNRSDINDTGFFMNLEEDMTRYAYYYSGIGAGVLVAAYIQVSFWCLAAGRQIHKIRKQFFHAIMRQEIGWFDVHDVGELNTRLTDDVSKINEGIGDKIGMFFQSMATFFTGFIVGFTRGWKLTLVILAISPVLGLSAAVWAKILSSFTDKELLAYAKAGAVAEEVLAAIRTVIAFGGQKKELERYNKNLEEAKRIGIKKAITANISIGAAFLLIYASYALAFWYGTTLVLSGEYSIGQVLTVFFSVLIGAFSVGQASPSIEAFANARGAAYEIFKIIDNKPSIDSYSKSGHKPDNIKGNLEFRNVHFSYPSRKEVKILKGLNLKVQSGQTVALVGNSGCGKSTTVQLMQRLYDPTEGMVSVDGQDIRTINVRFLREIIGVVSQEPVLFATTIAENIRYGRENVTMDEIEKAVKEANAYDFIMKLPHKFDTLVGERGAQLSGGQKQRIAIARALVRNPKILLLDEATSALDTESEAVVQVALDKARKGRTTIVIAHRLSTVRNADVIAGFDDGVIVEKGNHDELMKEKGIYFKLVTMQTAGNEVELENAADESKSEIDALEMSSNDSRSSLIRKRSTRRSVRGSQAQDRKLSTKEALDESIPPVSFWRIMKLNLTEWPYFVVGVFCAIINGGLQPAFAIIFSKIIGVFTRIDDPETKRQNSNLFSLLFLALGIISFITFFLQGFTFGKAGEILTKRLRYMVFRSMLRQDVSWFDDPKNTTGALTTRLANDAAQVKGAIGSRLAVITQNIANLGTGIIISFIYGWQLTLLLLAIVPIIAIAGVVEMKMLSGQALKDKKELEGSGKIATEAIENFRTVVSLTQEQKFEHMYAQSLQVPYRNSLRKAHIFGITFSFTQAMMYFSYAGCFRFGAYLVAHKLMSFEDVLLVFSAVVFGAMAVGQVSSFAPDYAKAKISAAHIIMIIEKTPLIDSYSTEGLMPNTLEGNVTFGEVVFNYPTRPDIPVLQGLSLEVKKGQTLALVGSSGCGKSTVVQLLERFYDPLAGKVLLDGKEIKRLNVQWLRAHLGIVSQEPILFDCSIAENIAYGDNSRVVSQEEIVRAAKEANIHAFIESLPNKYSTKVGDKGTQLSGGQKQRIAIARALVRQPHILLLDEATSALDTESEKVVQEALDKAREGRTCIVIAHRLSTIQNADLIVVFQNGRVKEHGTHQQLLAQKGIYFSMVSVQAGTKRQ
T1 sequence (P08183 whole entry): as above

`N#CC[Se]C(=O)c1ccccc1C(F)(F)F` [N4, Se-(Cyanomethyl) 2-(Trifluoromethyl)benzoselenoate]: the melting point lay within 65 to 67 °C. Besides, in data set [1], the “SI MRC-5/HepG2” value was >6 *.
Turning to `CC(=O)C[Se]C(=O)c1ccccc1C(F)(F)F` [K4, Se-(2-Oxopropyl) 2-(Trifluoromethyl)benzoselenoate], in data set [2] (0.2 µM), the “FSC (Forward Scatter Count)” value is on record as 1808, the “SSC (Side Scatter Count)” value worked out at 861 and the “FAR (fluorescence activity ratio)” value is given as 1.76. In data set [2] (2 µM), the “FSC (Forward Scatter Count)” value worked out at 1830, the “SSC (Side Scatter Count)” value is reported as 1008 and the “FAR (fluorescence activity ratio)” value was 4.99. The “SI MRC-5/B16” value in data set [3] is on record as 1.4.
As to `CC(=O)C[Se]C(=O)c1cc(F)c(F)cc1F` [K8, Se-(2-Oxopropyl) 2,4,5-Trifluorobenzoselenoate], in data set [2] (0.2 µM), the “FSC (Forward Scatter Count)” value is 1804, the “SSC (Side Scatter Count)” value is 853 and the “FAR (fluorescence activity ratio)” value was found to be 3.38. Moreover, in data set [2] (2 µM), the “FSC (Forward Scatter Count)” value was determined as 1990, the “SSC (Side Scatter Count)” value came out at 1131 and the “FAR (fluorescence activity ratio)” value turned out to be 36.09. The “SI MRC-5/B16” value in data set [3] was 1.8. Further, the “SI MRC-5/HepG2” value in data set [1] is listed as 0.6. In data set [4], the “Effect on P-gp ATPase activity” value is given as “milder inhibition of the ATPase; also recorded: inhibitors of P-gp ATPase activity”.
Take `CC(=O)C[Se]C(=O)c1ccc(C(C)(C)C)cc1` [K7, Se-(2-Oxopropyl) 4-(Tert-butyl)benzoselenoate]: in data set [2] (0.2 µM), the “FSC (Forward Scatter Count)” value turned out to be 1889, the “SSC (Side Scatter Count)” value is 938 and the “FAR (fluorescence activity ratio)” value amounted to 1.53. In data set [2] (2 µM), the “FSC (Forward Scatter Count)” value turned out to be 1920; the “SSC (Side Scatter Count)” value is on record as 1045; the “FAR (fluorescence activity ratio)” value is 40.38 and 40.39. In data set [3], the “SI MRC-5/B16” value turned out to be 2.7. The “SI MRC-5/HepG2” value in data set [1] is on record as 1.0. Also, in data set [4], the “Effect on P-gp ATPase activity” value is listed as “inhibited the ATPase activity; also recorded: inhibitors of P-gp ATPase activity”.
Turning to `CC(=O)C[Se]C(=O)c1cccs1` [K1, Se-(2-Oxopropyl) Thiophene-2-carboselenoate], in data set [2] (0.2 µM), the “FSC (Forward Scatter Count)” value worked out at 2144, the “SSC (Side Scatter Count)” value is on record as 989 and the “FAR (fluorescence activity ratio)” value is on record as 1.37. In data set [2] (2 µM), the “FSC (Forward Scatter Count)” value was determined as 1866, the “SSC (Side Scatter Count)” value was 1067 and the “FAR (fluorescence activity ratio)” value is recorded as 45.73. The “SI MRC-5/B16” value in data set [3] came to 2.6. For the same molecule, the “Effect on P-gp ATPase activity” value in data set [4] is “inhibited the ATPase activity; also recorded: inhibitors of P-gp ATPase activity”.
The molecule `N#CC[Se]C(=O)c1cc(C(F)(F)F)cc(C(F)(F)F)c1` [N7, Se-(Cyanomethyl) 3,5-Bis(trifluoromethyl)benzoselenoate] registered a melting point of 63 to 65 °C. The “SI MRC-5/HepG2” value in data set [1] is listed as >6 *.
Regarding `CC(=O)C[Se]C(=O)c1cccc(C(F)(F)F)c1` [K5, Se-(2-Oxopropyl) 3-(Trifluoromethyl)benzoselenoate], in data set [2] (0.2 µM), the “FSC (Forward Scatter Count)” value was 1982, the “SSC (Side Scatter Count)” value is listed as 1096 and the “FAR (fluorescence activity ratio)” value turned out to be 1.84. In addition, in data set [2] (2 µM), the “FSC (Forward Scatter Count)” value is recorded as 1949; the “SSC (Side Scatter Count)” value is 1053; the “FAR (fluorescence activity ratio)” value is 32.61 and 32.62. Besides, in data set [3], the “SI MRC-5/B16” value is recorded as 2.8. In data set [1], the “SI MRC-5/HepG2” value is 1.3. In data set [4], the “Effect on P-gp ATPase activity” value is listed as “milder stimulation”.
In turn, `N#CC[Se]C(=O)c1ccc(Br)cc1` [N3, Se-(Cyanomethyl) 4-Bromobenzoselenoate] displayed a melting point of 105 to 107 °C. Besides, the “SI MRC-5/B16” value in data set [3] is listed as >6 *. In addition, the “SI MRC-5/HepG2” value in data set [1] is >6 *.
Consider `CC(=O)C[Se]C(=O)c1ccc(Br)cc1` [K3, Se-(2-Oxopropyl) 4-Bromobenzoselenoate], for which, in data set [2] (0.2 µM), the “FSC (Forward Scatter Count)” value was found to be 1706, the “SSC (Side Scatter Count)” value is reported as 982 and the “FAR (fluorescence activity ratio)” value came out at 3.99. For the same molecule, in data set [2] (2 µM), the “FSC (Forward Scatter Count)” value is 2040, the “SSC (Side Scatter Count)” value worked out at 1031 and the “FAR (fluorescence activity ratio)” value came to 39.17. In addition, in data set [3], the “SI MRC-5/B16” value turned out to be 1.3. Further, in data set [4], the “Effect on P-gp ATPase activity” value is “stimulated the P-gp ATPase with a comparable intensity to the reference verapamil”.
In the case of `CC(=O)C[Se]C(=O)c1ccccc1F` [K2, Se-(2-Oxopropyl) 2-Fluorobenzoselenoate], in data set [2] (0.2 µM), the “FSC (Forward Scatter Count)” value is 1916, the “SSC (Side Scatter Count)” value came to 1061 and the “FAR (fluorescence activity ratio)” value is on record as 1.41. In addition, in data set [2] (2 µM), the “FSC (Forward Scatter Count)” value was 1945, the “SSC (Side Scatter Count)” value was found to be 1156 and the “FAR (fluorescence activity ratio)” value is listed as 37.35. Also, in data set [3], the “SI MRC-5/B16” value stood at 2.1. Besides, the “SI MRC-5/HepG2” value in data set [1] is on record as 1.1.
On to `CC(=O)C[Se]C(=O)c1ccc(F)c(Cl)c1` [K6, Se-(2-Oxopropyl) 3-Chloro-4-fluorobenzoselenoate], for which, in data set [2] (0.2 µM), the “FSC (Forward Scatter Count)” value is recorded as 1996, the “SSC (Side Scatter Count)” value was 873 and the “FAR (fluorescence activity ratio)” value is 1.48. For the same molecule, in data set [2] (2 µM), the “FSC (Forward Scatter Count)” value was 1833; the “SSC (Side Scatter Count)” value was determined as 1043; the “FAR (fluorescence activity ratio)” value was 29.4 and 29.42. Also, the “SI MRC-5/B16” value in data set [3] is listed as 2.8.
Regarding `N#CC[Se]C(=O)c1cccc(F)c1` [N2, Se-(Cyanomethyl) 3-Fluorobenzoselenoate], the “SI MRC-5/B16” value in data set [3] is >6 *. In data set [1], the “SI MRC-5/HepG2” value is >6 *.
